The test system of data set [1] is Gambiae Complex. As to conditions: ID 100156; F0, larval collection, 5/2009-4/2010, Chano, Ethiopia; WHO Bioassay 1998; ref Massebo F et al. Parasites Vectors. 2013;6; cited from earlier work.
For data set [2], the target named is T1, CYP6Z3 (Anopheles gambiae, UniProt Q86LT6, H411Y/S209G/W396L).
T1 sequence (Q86LT6 1-492 S209G/W396L/H411Y): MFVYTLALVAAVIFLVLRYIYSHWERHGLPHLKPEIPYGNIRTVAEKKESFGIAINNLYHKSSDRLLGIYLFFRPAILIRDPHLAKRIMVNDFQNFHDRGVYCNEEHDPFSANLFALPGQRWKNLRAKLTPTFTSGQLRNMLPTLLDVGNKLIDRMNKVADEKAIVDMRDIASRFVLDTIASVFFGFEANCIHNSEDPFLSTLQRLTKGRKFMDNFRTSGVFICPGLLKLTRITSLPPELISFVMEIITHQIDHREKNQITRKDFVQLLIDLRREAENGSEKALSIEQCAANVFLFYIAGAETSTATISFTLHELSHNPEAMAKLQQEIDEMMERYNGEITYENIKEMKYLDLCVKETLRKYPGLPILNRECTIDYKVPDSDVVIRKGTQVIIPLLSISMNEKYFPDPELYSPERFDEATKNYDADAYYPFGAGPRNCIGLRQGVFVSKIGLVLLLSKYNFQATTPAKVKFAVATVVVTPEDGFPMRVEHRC
T1 sequence (Q86QH5 1-679 partner): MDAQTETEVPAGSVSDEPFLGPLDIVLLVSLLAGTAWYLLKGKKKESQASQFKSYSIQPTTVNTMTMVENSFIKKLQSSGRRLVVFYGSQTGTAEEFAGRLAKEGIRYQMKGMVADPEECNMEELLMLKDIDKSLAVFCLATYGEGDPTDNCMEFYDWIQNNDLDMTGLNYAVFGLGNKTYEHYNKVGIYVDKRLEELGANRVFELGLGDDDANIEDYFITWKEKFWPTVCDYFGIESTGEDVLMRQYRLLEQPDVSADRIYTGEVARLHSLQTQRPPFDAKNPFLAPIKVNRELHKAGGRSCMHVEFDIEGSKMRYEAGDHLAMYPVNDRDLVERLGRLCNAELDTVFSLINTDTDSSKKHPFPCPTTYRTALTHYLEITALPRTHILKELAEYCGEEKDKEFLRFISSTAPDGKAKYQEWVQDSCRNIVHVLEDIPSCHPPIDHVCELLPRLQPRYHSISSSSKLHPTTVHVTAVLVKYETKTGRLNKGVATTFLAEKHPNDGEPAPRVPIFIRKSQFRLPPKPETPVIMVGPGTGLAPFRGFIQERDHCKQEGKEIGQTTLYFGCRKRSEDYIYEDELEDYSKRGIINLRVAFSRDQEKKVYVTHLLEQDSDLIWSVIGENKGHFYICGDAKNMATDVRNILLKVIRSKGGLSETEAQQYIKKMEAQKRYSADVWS
Description: Inhibition screening of pyrethroids, diethoxyfluorescein, CYP6Z3. Type of data set: biochemical. From the text: (§1) Cytochrome P450 inhibition assays using fluorogenic probe substrates have become commonplace in drug discovery screening cascades and are a rapid method of screening for insecticide interactions with mosquito P450s to predict insecticide binding, metabolism, cross-resistance and synergism. In this study, the half maximal inhibitory concentration (IC50), which provides a value for inhibition of each P450 by each pyrethroid (also referred to as ‘binding affinity’), and the percentage depletion, which gives a value for metabolism of each pyrethroid by each P450 (also referred to as vulnerability to metabolic attack), were both included as parameters to establish a P450s structural activity relationship model. This model was used to understand both the chemistry of the pyrethroids and the interaction with mosquito P450s that function as monooxygenases in metabolic resistance, to predict cross-resistance liabilities in vivo. […] A low percentage depletion indicates low metabolism of the pyrethroid, which means that it may be less vulnerable to resistance mediated by P450s.
(§2) In addition, inhibition activity data for these pyrethroids exposed to CYP6Z3 from the An. gambiae Kisumu strain were also generated (Additional file 1).
1. Preparation of An. gambiae CYP6Z3 and cloning
Total RNA was extracted with Arcturus PicoPure Kit (Applied Biosystems, USA) from ten adult An. gambiae mosquitoes from the Kisumu strain [1]. Complementary DNA was prepared using Superscript III (Invitrogen) with an oligo (dT)20 primer and used as a template for amplifying full -length AgCyp6z3 with KOD DNA polymerase (Merk Chemicals) . The gene-specific primers used in these high -fidelity PCRs (Table S1) were designed according to the reference An. gambiae PEST CYP6Z3 genome sequence (Accession number AY193727) The PCR product was ligated into pGEM T-easy vector (Promega) and sequenced on both strands. Consistent with the high frequency of polymorphism in An. gambiae P450s [2](Martin Nature Ref) there were 36 single nucleotide polymorphism (SNPs) compared with the reference sequence, of which three produced amino acid changes, S209G, W396L, and H411Y. For expression, the ompA leader sequence (ompA) was engineered onto the amino - terminus of the AgCyp6z3 gene to direct the P450 into the E. coli […] during expression as previously described. The ompA-leader was fused to AgCyp6z3 cDNA in frame with AgCyp6z3 initiation codon by fusion PCR using High fidelity Phusion polymerase (Scientific). The ompA AgCyp6z3 fusion was flanked at the 5′ and 3′ ends with NdeI and EcoR1, respectively for ligation into NdeI/EcoRI linearised pB13 (pCWori+).
Table S1. Primers used for amplification of CYP6Z3 and in vitro functional characterisation […]
ompA+2 Forward […]
ompA+2 CYP6Z3 fusion […]
2. Preparation of membranes expressing P450 and AgCPR
To express functional P450, AgCyp6z3 cloned into pB13 plasmid was co-transformed into E. coli JM109 cells with An. gambiae NADPH-cytochrome P450 reductase (AgCPR-pACYC). The P450 and the AgCPR were previously fused with ompA and pelB leader sequences respectively to direct the expressed proteins to the inner bacterial periplasm in order to form functional monooxygenase complex. For P450 production, 200 mL E. coli cultures in Terrific Broth were incubated at 21°C with shaking at 120 RPM for 18–24 h after induction with 1 mM IPTG. Following expression, E. coli membranes containing CYP6Z3 were isolated and P450 and AgCPR content measured as previously described. Samples were stored in aliquots of 100 µL at −80°C. An. gambiae cytochrome b5 was prepared as described previously to supplement enzyme reactions at an 8:1 M ratio, b5: P450 [4].
3. Inhibition screening of pyrethroids.
Inhibition screening of pyrethroid inhibitors and IC50 calculations carried out according Yunta et al. […]

Data set [3] has as its system CYP6P2. As to conditions: read-out: IC50 CYP6P2; inhibition of diethoxyfluorescein metabolism; footnote b; ref Yunta et al. 2019[10]; cited from earlier work.
The test system of data set [4] is CYP6P9a. As to conditions: read-out: IC50 CYP6P9a; inhibition of diethoxyfluorescein metabolism; footnote b; ref Yunta et al. 2019[10]; cited from earlier work.
The subject of data set [5] is CYP9J5. The following applies: read-out: IC50 CYP9J5; inhibition of diethoxyfluorescein metabolism; footnote b; ref Yunta et al. 2019[10]; cited from earlier work.
Data set [6] addresses T2, CYP6Z2 (Anopheles gambiae, UniProt Q7PNB5).
T2 sequence (Q7PNB5 1-492): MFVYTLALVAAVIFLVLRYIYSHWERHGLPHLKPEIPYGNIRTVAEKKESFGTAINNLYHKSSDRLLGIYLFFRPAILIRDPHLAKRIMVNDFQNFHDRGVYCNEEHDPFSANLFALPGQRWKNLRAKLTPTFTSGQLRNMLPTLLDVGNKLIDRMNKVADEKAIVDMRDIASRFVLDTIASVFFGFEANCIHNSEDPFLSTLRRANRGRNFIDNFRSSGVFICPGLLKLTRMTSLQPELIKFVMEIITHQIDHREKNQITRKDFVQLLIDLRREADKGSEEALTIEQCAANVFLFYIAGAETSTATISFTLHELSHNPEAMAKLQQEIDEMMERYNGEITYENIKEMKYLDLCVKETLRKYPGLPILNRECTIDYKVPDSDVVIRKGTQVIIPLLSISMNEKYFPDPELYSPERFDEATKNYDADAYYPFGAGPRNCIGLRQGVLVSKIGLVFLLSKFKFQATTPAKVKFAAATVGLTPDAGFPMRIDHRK
T2 sequence (Q86QH5 1-679 partner): T1 sequence (Q86QH5 1-679 partner)
Description: Inhibition screening of pyrethroids, diethoxyfluorescein, CYP6Z2. Type of data set: biochemical.

For data set [7], the system named is CYP6P3. As to conditions: read-out: IC50 CYP6P3; inhibition of diethoxyfluorescein metabolism; footnote b; ref Yunta et al. 2019[10]; cited from earlier work.
The test system of data set [8] is P450 panel (CYP6M2, CYP6P3, CYP6P9a, CYP6P2, CYP9J5, CYP6Z3, CYP6Z2). In words: P450 inhibition, whole P450 panel (mean across P450s). Type of data set: biochemical, Anopheles gambiae and An. funestus. The following applies: Anopheles gambiae and Anopheles funestus.
Excerpt: as §1, §2

In data set [9] the test system is Anopheles arabiensis. As to conditions: F0, larval collection, Sudan, WHO Bioassay 1998, ref Abdalla H et al. Parasites Vectors. 2014;7:213, cited from earlier work.
Data set [10] relates to CYP6P9a. The following applies: Incubation time 2h; mean ± SD; ref [38], [41]; cited from earlier work.
Data set [11] relates to CYP6M2, CYP6P3 and CYP6P9a. Description: Pyrethroid metabolism (insecticide depletion), across CYP6M2, CYP6P3 and CYP6P9a. The following applies: mean ± SD across CYP6M2, CYP6P3, CYP6P9a. Format: in vitro ADME, Anopheles gambiae and An. funestus.
Excerpt: as §1, with “In” for “Cytochrome P450 inhibition assays using fluorogenic probe substrates have become commonplace in drug discovery screening cascades and are a rapid method of screening for insecticide interactions with mosquito P450s to predict insecticide binding, metabolism, cross-resistance and synergism. In”
The values for percentage depletion (metabolism) of each pyrethroid by three of the enzymes CYP6M2, CYP6P3 and CYP6P9a, which were expressed in a single plasmid construct, were also extracted from the same sources and used for the comparative analysis.

In data set [12] the test system is CYP6M2. The following applies: Incubation time 2h; mean ± SD; ref [38], [41]; cited from earlier work.
In data set [13] the test system is An. funestus strain, FUMOZ-R. More on the design: method as in PMID 26930058. As to conditions: strain with upregulated P450 levels without any target-site mutations; ref [47]; cited from earlier work.
Data set [14] has as its system CYP6P3. The following applies: Incubation time 2h; mean ± SD; ref [38], [41]; cited from earlier work.

Each structure is given as a SMILES string. Like-named read-outs stand apart in the source and are kept apart here.

A word on the IC50: it is the concentration needed to halve the response being measured. Consider `CC1(C)C(C=C(Cl)Cl)C1C(=O)OC(C#N)c1cccc(Oc2ccccc2)c1` (stereo not drawn) [⍺-cypermethrin, α-cypermethrin], for which the mortality in data set [1] is recorded as 50. Further, the 50% inhibitory concentration (IC50) in [2] is 4.4 µM; in [3], 9.8 µM; in data set [4], 4.2 µM; in [5], 13.5 µM; in data set [6], 8.6 µM; in data set [7], 2.6 µM. Also, in [8], the IC50 came out at 6.4 µM.

As to `COP(=S)(OC)Oc1ccc([N+](=O)[O-])c(C)c1` [feni, fenitrothion], the mortality in data set [9] (10/2009-11/2009, El Managil) was 100; in [9] (10/2009-11/2009, Rufaa), 100; in [9] (10/2009-11/2009, Wad El Hadad) it was 100; in [9] (10/2010-11/2010, Wad El Hadad), 100; in data set [9] (10/2010-11/2010, Wad Medani) it was 100.

Consider `CNC(=O)Oc1cccc2c1OC(C)(C)O2` [bend, bendiocarb], for which the mortality in [9] (10/2009-11/2009, El Managil) is given as 100; in data set [9] (10/2009-11/2009, Rufaa), 100; in [9] (10/2009-11/2009, Wad El Hadad), 100; in data set [9] (10/2010-11/2010, Wad El Hadad), 100; in [9] (10/2010-11/2010, Wad Medani), 100.

On to `CC1(C)C(C=C(Cl)Cl)C1C(=O)OC(C#N)c1cccc(Oc2ccccc2)c1` (centres unmarked) [Cypermethrin], for which the “% Insecticide depletion CYP6P9a” value in [10] is 89.5 ± 2.7%. For the same compound, the “% Insecticide depletion Mean across P450s” value in [11] turned out to be 74.9 ± 33.3%. Besides, in data set [12], the “% Insecticide depletion CYP6M2” value was 36.8 ± 1.8%. Besides, in data set [13], the “effectiveness with or without piperonyl butoxide (PBO), in words” value is on record as “only effective when partnered with PBO”. In addition, the “% Insecticide depletion CYP6P3” value in data set [14] is reported as 98.4 ± 0.1%.

Take `CC1(C)C(C=C(Cl)Cl)C1C(=O)OC(C#N)c1ccc(F)c(Oc2ccccc2)c1` (centres unmarked) [ß-cyfluthrin]: the “effectiveness with or without piperonyl butoxide (PBO), in words” value in [13] is listed as “only effective when partnered with PBO”.

Regarding `Clc1ccc(C(c2ccc(Cl)cc2)C(Cl)(Cl)Cl)cc1` [DDT, dichlorodiphenyltrichloroethane], the mortality in data set [9] (10/2009-11/2009, El Managil) was 93; in data set [9] (10/2009-11/2009, Rufaa), 58; in [9] (10/2009-11/2009, Wad El Hadad), 74; in data set [9] (10/2010-11/2010, Wad El Hadad), 69; in data set [9] (10/2010-11/2010, Wad Medani), 70.
